Literature values as cited in patent publication US8293868B2 (priority 2004, dated 2012).

Test system: α-subunit of the P. americana high conductance calcium-activated potassium channel (pSlo)

## charybdotoxin
  block of pSlo channels previously reported: about 80%
